Source: patent US11214803B2, “Modulators of YAP1 expression” (Ionis Pharmaceuticals, Inc., priority 2019, dated 2022)
Strand notation (5' to 3'): a small letter for the sugar, then the base; units joined by * are phosphorothioate-linked, units joined directly phosphodiester-linked; [ ] holds rarer units or linkages, { } end groups; capitals alone tell only the bases. k = constrained ethyl (cEt); [5mC] = 5-methylcytosine; d = 2'-deoxy (DNA)

Test system: Yap1 mRNA
Assay: Antisense inhibition of human Yap1 in A-431 cells by cEt gapmers, single dose (Example 2, RTS4814)
Assay type: cell-based
Protocol: Modified oligonucleotides were designed to target a Yap1 nucleic acid and were tested for their effect on Yap1 mRNA level in vitro. The modified oligonucleotides were tested in a series of experiments that had similar culture conditions. Cultured A-431 cells at a density of 5,000 cells per well were treated using free uptake with 2,000 nM of modified oligonucleotide. After a treatment period of approximately 48 hours, RNA was isolated from the cells and Yap1 mRNA levels were measured by quantitative real-time RTPCR. Human primer probe set RTS4814 was used to measure mRNA levels. Yap1 mRNA levels were normalized to total RNA content, as measured by RIBOGREEN®. Results are presented in the tables below as percent control of the amount of Yap1 mRNA relative to untreated control cells (% UTC). The modified oligonucleotides with percent control values marked with an asterisk (*) target the amplicon region of the primer probe set. Additional assays may be used to measure the potency and efficacy of the modified oligonucleotides targeting the amplicon region.
The newly designed modified oligonucleotides in the Tables below were designed as 3-10-3 cEt gapmers. The gapmers are 16 nucleosides in length, wherein the central gap segment comprises of ten 2′-deoxynucleosides and is flanked by wing segments on the 5′ direction and the 3′ direction comprising three nucleosides each. Each nucleoside in the 5′ wing segment and each nucleoside in the 3′ wing segment has a cEt sugar modification. The internucleoside linkages throughout each gapmer are phosphorothioate (P═S) linkages. All cytosine residues throughout each gapmer are 5-methylcytosines.
“Start site” indicates the 5′-most nucleoside to which the gapmer is targeted in the human gene sequence. “Stop site” indicates the 3′-most nucleoside to which the gapmer is targeted human gene sequence. […] Activity ofthe modified oligonucleotide may be defined in a different experiment.

[1] = Table 22, Yap1 mRNA as percent of untreated control, 3-10-3 cEt gapmers, single dose
[2] = Table 5, A-431 cells, 5,000 cells per well, free uptake, 2,000 nM modified oligonucleotide, approx. 48 hours, RTS4814, normalized to RIBOGREEN, Yap1 mRNA relative to untreated control cells
[3] = Table 32, Yap1 mRNA, percent of untreated control, 3-10-3 cEt gapmers targeting SEQ ID NO.: 1, and 2

Q: For “1076388 (kG*kA*kA*dA*dT*dA*dT*dT*d[5mC]*dG*dA*dG*dA*kA*kG*kA; antisense) [Compound 1076388]”, which “YAP1 (% UTC)” value (Table 18, A-431 cells, 5,000 cells per well, free uptake, 2,000 nM modified oligonucleotide, approx. 48 hours, RTS4814, normalized to RIBOGREEN, Yap1 mRNA as percent of untreated control) is on record?
A: 6 % UTC

Q: Which “YAP1 (% UTC)” value (Yap1 mRNA as percent of untreated control, A-431 cells, 3-10-3 cEt gapmers targeting SEQ ID NO.: 1, and 2, Table 30) does the source give for “1074128 (k[5mC]*kT*k[5mC]*d[5mC]*dA*d[5mC]*dT*dG*dG*dT*d[5mC]*dT*dG*kG*k[5mC]*kG; antisense) [compound 1074128]” here?
A: 76 % UTC

Q: Which “YAP1 (% UTC)” value [1] does the source give for “1075944 (kT*kA*kT*dT*dA*dG*dG*dA*dA*d[5mC]*dA*dG*dA*kT*k[5mC]*kA; antisense) [Compound 1075944]” here?
A: 25 % UTC

Q: For “716476 (kG*kA*kA*d[5mC]*dT*dA*d[5mC]*dA*dA*dA*d[5mC]*dT*dA*kG*kA*kA; antisense) [Compound 716476]”, which “YAP1 (% UTC)” value [2] is on record?
A: 91 % UTC

Q: Which “YAP1 (% UTC)” value [2] does the source give for “716386 (kA*kT*kT*dT*d[5mC]*dT*d[5mC]*d[5mC]*dA*dT*d[5mC]*d[5mC]*dT*kG*kA*kG; antisense) [Compound 716386]” here?
A: 60 % UTC

Q: With “1076426 (kA*k[5mC]*kG*dG*dG*dA*dA*dA*dA*dT*dT*d[5mC]*dT*kG*kG*kA; antisense) [Compound 1076426]” as the substance, how does the “YAP1 (% UTC)” value (Table 24, Yap1 mRNA as percent of untreated control, 3-10-3 cEt gapmers targeting SEQ ID NO.: 1, and 2) read?
A: 9 % UTC

Q: Which “YAP1 (% UTC)” value (Table 19, A-431 cells, 5,000 cells per well, free uptake, 2,000 nM modified oligonucleotide, approx. 48 hours, RTS4814, normalized to RIBOGREEN, Yap1 mRNA as percent of untreated control) does the source give for “1074245 (antisense kA*kG*kA*dA*dG*dT*dA*dT*d[5mC]*dT*d[5mC]*dT*dG*kA*k[5mC]*k[5mC]) [Compound 1074245]” here?
A: 5 % UTC

Q: “1075815 (kG*kT*kA*dT*dA*dA*dA*dG*d[5mC]*dA*dG*dG*dG*k[5mC]*kA*kT; antisense) [Compound 1075815]” was tested. Which “YAP1 (% UTC)” value (Table 21, Yap1 mRNA, percent of untreated control, 3-10-3 cEt gapmers targeting SEQ ID NO.: 1 and 2) did it give?
A: 36 % UTC

Q: “1075729 (kT*kA*kT*dT*dT*dA*dA*dA*dA*dA*dT*dA*dG*k[5mC]*kG*k[5mC]; antisense) [compound 1075729]” was tested. Which “YAP1 (% UTC)” value (Yap1 mRNA as percent of untreated control, A-431 cells, 3-10-3 cEt gapmers targeting SEQ ID NO.: 1, and 2, Table 31) did it give?
A: 88 % UTC

Q: “716532 (antisense k[5mC]*kA*kA*dG*dA*dA*dG*d[5mC]*dA*dG*dT*dT*dA*kA*kG*k[5mC]) [Compound 716532]” was tested. Which “YAP1 (% UTC)” value (A-431 cells, 5,000 cells per well, free uptake, 2,000 nM modified oligonucleotide, approx. 48 hours, RTS4814, normalized to RIBOGREEN, Table 4, asterisk (*) = targets amplicon region of primer probe set) did it give?
A: 70 % UTC

Q: With “716518 (antisense k[5mC]*kA*kA*dG*dG*dT*d[5mC]*d[5mC]*d[5mC]*d[5mC]*d[5mC]*dT*dA*kA*kA*kT) [Compound 716518]” as the substance, how does the “YAP1 (% UTC)” value [2] read?
A: 88 % UTC

Q: For “1074899 (antisense kT*kA*kA*d[5mC]*dT*dT*dT*dT*dG*dG*dG*d[5mC]*dA*kA*kA*kG) [compound 1074899]”, which “YAP1 (% UTC)” value (Table 33, Yap1 mRNA, percent of untreated control, 3-10-3 cEt gapmers targeting SEQ ID NO.: 1, and 2) is on record?
A: 52 % UTC

Q: For “1075147 (antisense kT*kA*kT*dA*dA*dA*d[5mC]*d[5mC]*dT*dT*dA*d[5mC]*dA*kG*kT*kA) [Compound 1075147]”, which “YAP1 (% UTC)” value (Table 25, Yap1 mRNA as percent of untreated control, 3-10-3 cEt gapmers targeting SEQ ID NO.: 1, and 2) is on record?
A: 57 % UTC

Q: With “1074632 (antisense kT*k[5mC]*kA*dT*dA*dG*d[5mC]*dA*dG*d[5mC]*dT*dT*dT*kT*kG*k[5mC]) [Compound 1074632]” as the substance, how does the “YAP1 (% UTC)” value [1] read?
A: 12 % UTC

Q: Which “YAP1 (% UTC)” value [3] does the source give for “1075378 (antisense kA*kA*kA*dA*d[5mC]*dT*dA*dA*dT*d[5mC]*dA*dT*d[5mC]*kG*kA*kT) [compound 1075378]” here?
A: 83 % UTC

Q: Which “YAP1 (% UTC)” value [3] does the source give for “1076402 (antisense k[5mC]*kG*kT*dA*dA*dT*dT*dA*dT*dT*dT*dT*dT*kG*k[5mC]*kT) [compound 1076402]” here?
A: 38 % UTC
